According to ChEMBL document CHEMBL1143875, “Synthesis and structure-activity relationships of thiadiazole-derivatives as potent and orally active peroxisome proliferator-activated receptors alpha/delta dual agonists” (Bioorg Med Chem, 2008):
Calls of active or inactive are those of the source. The rule behind the calls is not given here.

Columns and labels:
[1] = Induction of CPT1 gene expression in human skeletal muscle cells at 1 nM by RT-PCR; format: functional
[2] = Induction of CPT1 gene expression in human skeletal muscle cells at 1000 nM by RT-PCR; format: functional
[3] = Induction of Pa9 gene expression in human skeletal muscle cells at 1000 nM by RT-PCR; format: functional
[4] = Inhibition of cytochrome P450 in human liver microsome; format: ADME, microsomes
Rattus norvegicus = test: Increase in HDL cholesterol level in po dosed hypercholesterolemic Sprague-Dawley rat serum after 8 days; format: functional
[5] = Cmax in Sprague-Dawley rat at 3 mg/kg administered as single dose on day 8; format: ADME, organism-based; parameters: dose 3 mg/kg; conditions: in vivo
[6] = AUC in Sprague-Dawley rat at 1 mg/kg administered as multiple dose after 8 days; format: ADME, organism-based; parameters: dose 1 mg/kg; conditions: plasma
[7] = Half life in Sprague-Dawley rat at 0.1 mg/kg administered as multiple dose after 8 days; format: ADME, organism-based; parameters: dose 0.1 mg/kg; conditions: in vivo
[8] = Half life in Sprague-Dawley rat at 0.3 mg/kg administered as multiple dose after 8 days; format: ADME, organism-based; parameters: dose 0.3 mg/kg; conditions: in vivo
[9] = Half life in Sprague-Dawley rat at 3 mg/kg administered as single dose on day 8; format: ADME, organism-based; parameters: dose 3 mg/kg; conditions: in vivo
Mus musculus [10] = test: Reduction in triglyceride level in po dosed hApoA1 transgenic mouse after 7 days; format: functional, organism-based
Mus musculus [11] = test: Decrease in non esterified free fatty acid level i in po dosed hApoA1 transgenic mouse after 7 days; format: functional, organism-based
Mus musculus [12] = test: […] effect of ob/ob C57BL/6J-leptin deficient obese mouse assessed as reduction in triglyceride level at 0.1 to 3 mg/kg, po after 11 days; format: functional; parameters: scale not given: the % may be the effect or the level left; conditions: dose mg/kg 0.1-3
[13] = Cmax in Beagle dog at 10 mg/kg administered as single dose on day 7; format: ADME, organism-based, Canis lupus familiaris; parameters: dose 10 mg/kg; conditions: in vivo
[14] = AUC in Beagle dog at 1 mg/kg administered as multiple dose after 7 days; format: ADME, organism-based, Canis lupus familiaris; parameters: dose 1 mg/kg; conditions: plasma
[15] = AUC in Beagle dog at 10 mg/kg administered as multiple dose after 7 days; format: ADME, organism-based, Canis lupus familiaris; parameters: dose 10 mg/kg; conditions: plasma
[16] = AUC in Beagle dog at 10 mg/kg administered as single dose on day 7; format: ADME, organism-based, Canis lupus familiaris; parameters: dose 10 mg/kg; conditions: plasma
[17] = Half life in Beagle dog at 0.3 mg/kg administered as multiple dose after 7 days; format: ADME, organism-based, Canis lupus familiaris; parameters: dose 0.3 mg/kg; conditions: in vivo
[18] = Half life in Beagle dog at 1 mg/kg administered as multiple dose after 7 days; format: ADME, organism-based, Canis lupus familiaris; parameters: dose 1 mg/kg; conditions: in vivo
[19] = Half life in Beagle dog at 3 mg/kg administered as multiple dose after 7 days; format: ADME, organism-based, Canis lupus familiaris; parameters: dose 3 mg/kg; conditions: in vivo
[20] = Half life in Beagle dog at 10 mg/kg administered as multiple dose after 7 days; format: ADME, organism-based, Canis lupus familiaris; parameters: dose 10 mg/kg; conditions: in vivo
Mus musculus [21] = test: […] effect of ob/ob C57BL/6J-leptin deficient obese mouse assessed as reduction in body weight at 0.1 to 3 mg/kg, po after 11 days; format: functional, organism-based
[22] = Cmax in ob/ob C57BL/6J-leptin deficient obese mouse at 0.1 mg/kg administered as multiple dose after 11 days; format: ADME, organism-based; parameters: dose 0.1 mg/kg; conditions: in vivo
[23] = Cmax in ob/ob C57BL/6J-leptin deficient obese mouse at 1 mg/kg administered as multiple dose after 11 days; format: ADME, organism-based; parameters: dose 1 mg/kg; conditions: in vivo
[24] = AUC in ob/ob C57BL/6J-leptin deficient obese mouse at 0.3 mg/kg administered as multiple dose after 11 days; format: ADME, organism-based; parameters: dose 0.3 mg/kg; conditions: plasma
[25] = AUC in ob/ob C57BL/6J-leptin deficient obese mouse at 1 mg/kg administered as multiple dose after 11 days; format: ADME, organism-based; parameters: dose 1 mg/kg; conditions: plasma
[26] = AUC in ob/ob C57BL/6J-leptin deficient obese mouse at 3 mg/kg administered as multiple dose after 11 days; format: ADME, organism-based; parameters: dose 3 mg/kg; conditions: plasma
[27] = AUC in ob/ob C57BL/6J-leptin deficient obese mouse at 3 mg/kg administered as single dose on day 11; format: ADME, organism-based; parameters: dose 3 mg/kg; conditions: plasma
[28] = Half life in ob/ob C57BL/6J-leptin deficient obese mouse at 3 mg/kg administered as multiple dose after 11 days; format: ADME, organism-based; parameters: dose 3 mg/kg; conditions: in vivo
Canis familiaris [29] = test: Antihyperlipidemic activity in Beagle dog serum assessed as reduction in total cholesterol level at 0.3 to 10 mg/kg, po/day after 7 days; format: functional, organism-based; conditions: Canis lupus familiaris
Canis familiaris [30] = test: Effect on aspartate aminotransferase level in Beagle dog serum at 0.3 to 3 mg/kg, po/day after 7 days; format: functional, organism-based; conditions: Canis lupus familiaris
Canis familiaris [31] = test: Effect on alanine aminotransferase level in Beagle dog serum at 0.3 to 3 mg/kg, po/day after 7 days; format: functional, organism-based; conditions: Canis lupus familiaris
Canis familiaris [32] = test: Increase in aspartate aminotransferase level in Beagle dog serum at 10 mg/kg, po/day after 7 days; format: functional, Canis lupus familiaris
[33] = Cmax in Beagle dog at 1 mg/kg administered as multiple dose after 7 days; format: ADME, organism-based, Canis lupus familiaris; parameters: dose 1 mg/kg; conditions: in vivo
[34] = Cmax in Beagle dog at 3 mg/kg administered as multiple dose after 7 days; format: ADME, organism-based, Canis lupus familiaris; parameters: dose 3 mg/kg; conditions: in vivo
[35] = target: T1, Peroxisome proliferator-activated receptor alpha (Homo sapiens) (UniProt Q07869); test: Agonist activity at human PPARalpha-Gal4 in HEK293 cells by luciferase reporter assay relative to (S)-2-{2-[1-ethyl-3-(4-trifluoro-methoxyphenyl)ureido]indan-5-ylsulfanyl}-2-methylpropionic acid; format: functional, cell-based
T1 sequence (whole entry): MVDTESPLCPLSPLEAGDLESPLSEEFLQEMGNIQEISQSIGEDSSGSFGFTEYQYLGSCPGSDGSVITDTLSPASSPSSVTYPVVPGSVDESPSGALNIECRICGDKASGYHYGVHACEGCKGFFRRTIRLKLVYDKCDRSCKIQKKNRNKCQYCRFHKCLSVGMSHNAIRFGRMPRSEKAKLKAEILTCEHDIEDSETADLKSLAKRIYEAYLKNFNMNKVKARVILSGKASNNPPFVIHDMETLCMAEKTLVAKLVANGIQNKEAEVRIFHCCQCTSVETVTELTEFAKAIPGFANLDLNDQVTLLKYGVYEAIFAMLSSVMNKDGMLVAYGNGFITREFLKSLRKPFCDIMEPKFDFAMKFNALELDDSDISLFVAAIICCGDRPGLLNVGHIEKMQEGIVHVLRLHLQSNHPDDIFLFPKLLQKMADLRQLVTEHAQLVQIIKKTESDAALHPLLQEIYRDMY

[36] = target: T2, Bile acid receptor (Homo sapiens) (UniProt Q96RI1); test: Activity at farnesoid X receptor
T2 sequence (whole entry): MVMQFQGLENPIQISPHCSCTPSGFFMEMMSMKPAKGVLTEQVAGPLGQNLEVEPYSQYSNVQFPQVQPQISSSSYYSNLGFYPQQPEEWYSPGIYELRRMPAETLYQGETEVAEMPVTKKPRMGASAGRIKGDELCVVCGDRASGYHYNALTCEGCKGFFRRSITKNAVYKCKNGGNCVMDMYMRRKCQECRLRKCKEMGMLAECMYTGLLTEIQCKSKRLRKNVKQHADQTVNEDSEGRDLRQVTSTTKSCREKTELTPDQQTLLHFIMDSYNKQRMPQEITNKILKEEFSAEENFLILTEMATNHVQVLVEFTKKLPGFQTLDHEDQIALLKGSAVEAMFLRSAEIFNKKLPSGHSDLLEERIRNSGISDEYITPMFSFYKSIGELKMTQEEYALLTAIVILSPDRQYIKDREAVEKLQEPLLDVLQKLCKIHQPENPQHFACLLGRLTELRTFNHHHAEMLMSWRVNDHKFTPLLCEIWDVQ

[37] = Activity at liver X receptor

IC50 [4]: > 30 µM | Cmax [5]: 2520 ng/mL | AUC at 192 h [6]: 13900 ng·h/mL | half-life [7]: 330 min | half-life [8]: 306 min | half-life [9]: 432 min | Cmax [13]: 10100 ng/mL | AUC at 168 h [14]: 6500 ng·h/mL | AUC at 168 h [15]: 61600 ng·h/mL | AUC [16]: 57200 ng·h/mL | half-life [17]: 390 min | half-life [18]: 282 min | half-life [19]: 360 min | half-life [20]: 372 min | Cmax [22]: 480 ng/mL | Cmax [23]: 6830 ng/mL | AUC at 264 h [24]: 10600 ng·h/mL | AUC at 264 h [25]: 47600 ng·h/mL | AUC at 264 h [26]: 249 µg·h/mL | AUC [27]: 115 µg·h/mL | half-life [28]: 402 min | Cmax [33]: 1530 ng/mL | Cmax [34]: 6710 ng/mL | Efficacy [35]: 56% | Activity [36]: inactive | Activity [37]: inactive
SMILES: Cc1cc(SCc2nc(-c3ccc(Cl)c(Cl)c3)ns2)ccc1OC(C)(C)C(=O)O
Fold change [1]: 3 | Fold change [2]: 7.8 | Fold change [3]: 15 | Activity (Rattus norvegicus): 45 mg/dL | Activity (Mus musculus [10]): Active | Activity (Mus musculus [11]): Active | Activity (Mus musculus [12]): 83% | Activity (Mus musculus [21]): Active | Activity (Canis familiaris [29]): Dose-dependent effect | Activity (Canis familiaris [30]): inactive | Activity (Canis familiaris [31]): inactive | Fold change (Canis familiaris [32]): 1.7
